Results: patent publication US20260108546A1 (ELI LILLY AND COMPANY, priority 2024, published 2026)

Target: T1, hGIP-R (Homo sapiens, UniProt P48546)
T1 construct: expressed in transfected cells; host or cells: HEK-293 clonal cell lines
T1 sequence (P48546 22-466): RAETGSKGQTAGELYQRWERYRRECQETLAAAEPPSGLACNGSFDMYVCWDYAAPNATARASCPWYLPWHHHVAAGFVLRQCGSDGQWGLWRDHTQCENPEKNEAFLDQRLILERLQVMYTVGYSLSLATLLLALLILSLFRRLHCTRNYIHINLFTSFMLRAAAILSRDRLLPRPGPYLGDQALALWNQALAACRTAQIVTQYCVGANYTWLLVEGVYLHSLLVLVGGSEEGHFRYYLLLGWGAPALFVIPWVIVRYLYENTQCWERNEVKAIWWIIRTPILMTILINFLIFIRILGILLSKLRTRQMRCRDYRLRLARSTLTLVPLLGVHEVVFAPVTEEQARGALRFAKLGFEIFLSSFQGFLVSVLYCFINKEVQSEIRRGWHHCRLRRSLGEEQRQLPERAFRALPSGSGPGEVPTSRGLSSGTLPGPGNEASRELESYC
Assay: Functional hGIP-R Assay (cAMP formation, HTRF)
Assay type: cell-based
Settings: for Emax: cAMP efficacy, percent of maximal response to GIP(1-42)OH, 37° C., 0.1% bovine casein, arithmetic mean ± SEM; for EC50: cAMP potency, HEK-293 cells expressing hGIP-R, incubated at 37° C. in the presence of 0.1% bovine casein, geometric mean, read-out: Human GIP-R EC50, nM (SEM, n)
Method: Functional activity was determined using CAMP formation in HEK-293 clonal cell lines expressing hGIP-R. hGIP-R receptor expressing cells were treated with compound (20 point concentration-response curve in DMSO, 2-fold Labcyte Echo direct dilution, 384 well plate Corning Cat #3570) in DMEM (Gibco Cat #31053) supplemented with 1× GlutaMAX™ (Gibco Cat #35050), 0.1% bovine casein (Sigma C4765-10ML), 250 μM IBMX (3-Isobutyl-1-methylxanthine, Acros Cat #228420010) and 20 mM HEPES (Gibco Cat #15630) in a 20 μL assay volume (final DMSO concentration was 1%). After a 30 min incubation at 37° C., the resulting increase in intracellular cAMP was quantitatively determined using the Revvity CAMP Dynamic 2 HTRF Assay Kit (62AM4PEJ). Briefly, cAMP levels within the cell were detected by adding the cAMP-d2 conjugate in cell lysis buffer (10 μL) followed by the antibody anti-cAMP-Eu^3+-Cryptate, also in cell lysis buffer (10 μL). The resulting competitive assay was incubated for at least 60 min at RT, then detected using a BMG Labtech PHERAstar FSX instrument with excitation at 320 nm and emission at 665 nm and 620 nm. PHERAstar units (emission at 665 nm/620 nm*10,000) are inversely proportional to the amount of cAMP present and were converted to nM cAMP per well using a CAMP standard curve. The amount of cAMP generated (nM) in each well was converted to a percent of the maximal response observed with human GIP (1-42) OH. A relative EC50 value and percent top (Emax) were derived by non-linear regression analysis using the percent maximal response vs. the concentration of compound added, fitted to a four-parameter logistic equation.

SMILES	Emax	EC50
Cn1cc(C[C@@H](NC(=O)[C@H]2C[C@@H]2c2ccc(-c3cnc4nn(C)cc4c3)nc2C(F)(F)F)C(=O)NC(C)(C)Cn2cc(C(F)(F)F)cn2)cn1 [Example 22, (1S,2S)-N-((R)-1-((2-Methyl-1-(4-(trifluoromethyl)-1H-pyrazol-1-yl)propan-2-yl)amino)-3-(1-methyl-1H-pyrazol-4-yl)-1-oxopropan-2-yl)-2-(6-(2-methyl-2H-pyrazolo[3,4-b]pyridin-5-yl)-2-(trifluoromethyl)pyridin-3-yl)cyclopropane-1-carboxamide]	109 ± 11.6%	61.3 nM
Cn1cc(C[C@@H](NC(=O)[C@H]2C[C@@H]2c2ccc(-c3cnc4nc(C(F)(F)F)cn4c3)cc2)C(=O)NC(C)(C)Cn2nc(C(F)(F)F)cc2-n2ccnn2)cn1 [Example 23, (1S,2S)-N-((R)-1-((1-(5-(1H-1,2,3-Triazol-1-yl)-3-(trifluoromethyl)-1H-pyrazol-1-yl)-2-methylpropan-2-yl)amino)-3-(1-methyl-1H-pyrazol-4-yl)-1-oxopropan-2-yl)-2-(4-(2-(trifluoromethyl)imidazo [1,2-a]pyrimidin-6-yl)phenyl) cyclopropane-1-carboxamide]	111 ± 11.6%	44.4 nM
COC(=O)c1cc(C(F)(F)F)nn1CC(C)(C)NC(=O)[C@@H](Cc1cnn(C)c1)NC(=O)[C@H]1C[C@@H]1c1ccc(-c2cnc3nc(C(F)(F)F)cn3c2)cc1 [Example 24, Methyl 1-(2-methyl-2-((R)-3-(1-methyl-1H-pyrazol-4-yl)-2-((15,2S)-2-(4-(2-(trifluoromethyl)imidazo [1,2-a]pyrimidin-6-yl)phenyl)cyclopropane-1-carboxamido)propanamido)propyl)-3-(trifluoromethyl)-1H-pyrazole-5-carboxylate]	133 ± 0.579%	15.8 nM
Cn1cc(C[C@@H](NC(=O)[C@H]2C[C@@H]2c2ccc(-c3cnc4nc(C(F)(F)F)cn4c3)cc2)C(=O)NC(C)(C)Cn2nc(C(F)(F)F)cc2-c2nnc[nH]2)cn1 [Example 25, (1S,2S)-N-((R)-1-((1-(5-(4H-1,2,4-Triazol-3-yl)-3-(trifluoromethyl)-1H-pyrazol-1-yl)-2-methylpropan-2-yl)amino)-3-(1-methyl-1H-pyrazol-4-yl)-1-oxopropan-2-yl)-2-(4-(2-(trifluoromethyl)imidazo [1,2-a]pyrimidin-6-yl)phenyl) cyclopropane-1-carboxamide]	142 ± 17.3%	82.7 nM
Cn1cc(C[C@@H](NC(=O)[C@H]2C[C@@H]2c2ccc(-c3cnc4nc(C(F)(F)F)cn4c3)cc2)C(=O)NC(C)(C)Cn2nc(C(F)(F)F)cc2-c2cn[nH]n2)cn1 [Example 26, (1S,2S)-N-((R)-1-((1-(5-(2H-1,2,3-Triazol-4-yl)-3-(trifluoromethyl)-1H-pyrazol-1-yl)-2-methylpropan-2-yl)amino)-3-(1-methyl-1H-pyrazol-4-yl)-1-oxopropan-2-yl)-2-(4-(2-(trifluoromethyl)imidazo [1,2-a]pyrimidin-6-yl)phenyl) cyclopropane-1-carboxamide]	132 ± 15.5%	17.4 nM

Further lines, results first:

Emax	EC50	SMILES
123 ± 1.72%	66.9 nM	Cn1cc(C[C@@H](NC(=O)[C@H]2C[C@@H]2c2ccc(-c3cnc4nn(C)cc4c3)cc2)C(=O)NC(C)(C)Cn2nc(C(F)(F)F)cc2-c2ccc(=O)n(C)c2)cn1 [Example 19, (1S,2S)-N-((R)-1-((2-Methyl-1-(5-(1-methyl-6-oxo-1,6-dihydropyridin-3-yl)-3-(trifluoromethyl)-1H-pyrazol-1-yl)propan-2-yl)amino)-3-(1-methyl-1H-pyrazol-4-yl)-1-oxopropan-2-yl)-2-(4-(2-methyl-2H-pyrazolo[3,4-b]pyridin-5-yl)phenyl) cyclopropane-1-carboxamide]
126 ± 2.39%	79.7 nM	Cn1cc(C[C@@H](NC(=O)[C@H]2C[C@@H]2c2ccc(-c3cnc4nn(C)cc4c3)cc2)C(=O)NC(C)(C)Cn2nc(C(F)(F)F)cc2-n2ccccc2=O)cn1 [Example 20, (1S,2S)-N-((R)-1-((2-Methyl-1-(5-(2-oxopyridin-1(2H)-yl)-3-(trifluoromethyl)-1H-pyrazol-1-yl)propan-2-yl)amino)-3-(1-methyl-1H-pyrazol-4-yl)-1-oxopropan-2-yl)-2-(4-(2-methyl-2H-pyrazolo[3,4-b]pyridin-5-yl)phenyl) cyclopropane-1-carboxamide]
102 ± 1.71%	63.4 nM	Cn1cc(C[C@@H](NC(=O)[C@H]2C[C@@H]2c2ccc(-c3cnc4nn(C)cc4c3)cc2)C(=O)NC(C)(C)Cn2nc(C(F)(F)F)cc2C2CC2)cn1 [Example 21, (1S,2S)-N-((R)-1-((1-(5-Cyclopropyl-3-(trifluoromethyl)-1H-pyrazol-1-yl)-2-methylpropan-2-yl)amino)-3-(1-methyl-1H-pyrazol-4-yl)-1-oxopropan-2-yl)-2-(4-(2-methyl-2H-pyrazolo [3,4-b]pyridin-5-yl)phenyl) cyclopropane-1-carboxamide]
99.3%	61.6 nM	Cn1cc(C[C@@H](NC(=O)[C@H]2C[C@@H]2c2ccc(-c3cnc4nccn4c3)cc2)C(=O)NC(C)(C)Cn2nc(C(F)(F)F)cc2-c2cn[nH]n2)cn1 [Example 27, (1S,2S)-N-((R)-1-((1-(5-(2H-1,2,3-Triazol-4-yl)-3-(trifluoromethyl)-1H-pyrazol-1-yl)-2-methylpropan-2-yl)amino)-3-(1-methyl-1H-pyrazol-4-yl)-1-oxopropan-2-yl)-2-(4-(imidazo[1,2-a]pyrimidin-6-yl)phenyl) cyclopropane-1-carboxamide]
91.9 ± 0.597%	20.5 nM	Cn1cc(C[C@@H](NC(=O)[C@H]2C[C@@H]2c2ccc(-c3cnc4nccn4c3)cc2)C(=O)NC(C)(C)Cn2nc(C(F)(F)F)cc2-c2cnn(C)c2)cn1 [Example 28, (1S,2S)-2-(4-(Imidazo[1,2-a]pyrimidin-6-yl)phenyl)-N-((R)-1-((2-methyl-1-(1′-methyl-5-(trifluoromethyl)-1′H,2H-[3,4′-bipyrazol]-2-yl)propan-2-yl)amino)-3-(1-methyl-1H-pyrazol-4-yl)-1-oxopropan-2-yl)cyclopropane-1-carboxamide]
95.2 ± 0.936%	198 nM	CN(C(=O)[C@H]1C[C@@H]1c1ccc(-c2cnc3nn(C)cc3c2)cc1)[C@H](Cc1cnn(C)c1)C(=O)NC(C)(C)Cn1nc(C(F)(F)F)cc1-c1n[nH]c(=O)s1 [Example 30, (1S,2S)-N-Methyl-N-((R)-1-((2-methyl-1-(5-(5-oxo-4,5-dihydro-1,3,4-thiadiazol-2-yl)-3-(trifluoromethyl)-1H-pyrazol-1-yl)propan-2-yl)amino)-3-(1-methyl-1H-pyrazol-4-yl)-1-oxopropan-2-yl)-2-(4-(2-methyl-2H-pyrazolo[3,4-b]pyridin-5-yl)phenyl) cyclopropane-1-carboxamide]
117 ± 4.92%	152 nM	CN(C(=O)[C@H]1C[C@@H]1c1ccc(-c2cnc3nn(C)cc3c2)cc1)[C@H](Cc1cnn(C)c1)C(=O)NC(C)(C)Cn1nc(C(F)(F)F)cc1-c1ccc(=O)n(C)c1 [Example 31, (1S,2S)-N-Methyl-N-((R)-1-((2-methyl-1-(5-(1-methyl-6-oxo-1,6-dihydropyridin-3-yl)-3-(trifluoromethyl)-1H-pyrazol-1-yl)propan-2-yl)amino)-3-(1-methyl-1H-pyrazol-4-yl)-1-oxopropan-2-yl)-2-(4-(2-methyl-2H-pyrazolo[3,4-b]pyridin-5-yl)phenyl) cyclopropane-1-carboxamide]
